Columns and labels:
[1] = target: human recombinant Btk (Homo sapiens (Human), UniProt Q06187); experiment: Human Recombinant Btk Enzyme Assay; assay type: biochemical
[2] = target: Jak2 tyrosine kinase (Homo sapiens (Human), UniProt O60674); experiment: Jak2 Tyrosine Kinase Assay; assay type: biochemical; conditions: for Ratio of Jak2/Btk IC50 values: selectivity: Jak2 IC50 divided by Btk IC50
[3] = test system: CD69 expression on B cells in human whole blood; experiment: Whole Blood Assay of BCR-Stimulated CD69 Expression on B Cells; assay type: cell-based; conditions: B-cell

Chain of human recombinant Btk (Q06187 whole entry): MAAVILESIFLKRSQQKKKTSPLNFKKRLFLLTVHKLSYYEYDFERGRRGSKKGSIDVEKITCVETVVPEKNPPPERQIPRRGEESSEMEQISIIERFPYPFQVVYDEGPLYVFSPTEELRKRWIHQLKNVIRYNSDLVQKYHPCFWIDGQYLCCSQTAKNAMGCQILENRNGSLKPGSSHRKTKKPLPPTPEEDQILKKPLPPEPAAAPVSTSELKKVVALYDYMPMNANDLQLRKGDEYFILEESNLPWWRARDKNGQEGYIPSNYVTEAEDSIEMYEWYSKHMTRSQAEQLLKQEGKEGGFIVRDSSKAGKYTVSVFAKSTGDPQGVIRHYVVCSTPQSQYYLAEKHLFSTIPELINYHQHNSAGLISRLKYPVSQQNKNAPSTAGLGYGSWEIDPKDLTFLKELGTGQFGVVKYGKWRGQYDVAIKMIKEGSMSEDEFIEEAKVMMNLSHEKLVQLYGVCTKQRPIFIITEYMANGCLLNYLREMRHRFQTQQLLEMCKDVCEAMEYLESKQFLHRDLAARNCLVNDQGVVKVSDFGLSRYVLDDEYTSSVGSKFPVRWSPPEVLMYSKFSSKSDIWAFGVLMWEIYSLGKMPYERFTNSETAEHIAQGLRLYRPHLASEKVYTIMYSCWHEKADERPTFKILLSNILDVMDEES
Chain of Jak2 tyrosine kinase (O60674 whole entry): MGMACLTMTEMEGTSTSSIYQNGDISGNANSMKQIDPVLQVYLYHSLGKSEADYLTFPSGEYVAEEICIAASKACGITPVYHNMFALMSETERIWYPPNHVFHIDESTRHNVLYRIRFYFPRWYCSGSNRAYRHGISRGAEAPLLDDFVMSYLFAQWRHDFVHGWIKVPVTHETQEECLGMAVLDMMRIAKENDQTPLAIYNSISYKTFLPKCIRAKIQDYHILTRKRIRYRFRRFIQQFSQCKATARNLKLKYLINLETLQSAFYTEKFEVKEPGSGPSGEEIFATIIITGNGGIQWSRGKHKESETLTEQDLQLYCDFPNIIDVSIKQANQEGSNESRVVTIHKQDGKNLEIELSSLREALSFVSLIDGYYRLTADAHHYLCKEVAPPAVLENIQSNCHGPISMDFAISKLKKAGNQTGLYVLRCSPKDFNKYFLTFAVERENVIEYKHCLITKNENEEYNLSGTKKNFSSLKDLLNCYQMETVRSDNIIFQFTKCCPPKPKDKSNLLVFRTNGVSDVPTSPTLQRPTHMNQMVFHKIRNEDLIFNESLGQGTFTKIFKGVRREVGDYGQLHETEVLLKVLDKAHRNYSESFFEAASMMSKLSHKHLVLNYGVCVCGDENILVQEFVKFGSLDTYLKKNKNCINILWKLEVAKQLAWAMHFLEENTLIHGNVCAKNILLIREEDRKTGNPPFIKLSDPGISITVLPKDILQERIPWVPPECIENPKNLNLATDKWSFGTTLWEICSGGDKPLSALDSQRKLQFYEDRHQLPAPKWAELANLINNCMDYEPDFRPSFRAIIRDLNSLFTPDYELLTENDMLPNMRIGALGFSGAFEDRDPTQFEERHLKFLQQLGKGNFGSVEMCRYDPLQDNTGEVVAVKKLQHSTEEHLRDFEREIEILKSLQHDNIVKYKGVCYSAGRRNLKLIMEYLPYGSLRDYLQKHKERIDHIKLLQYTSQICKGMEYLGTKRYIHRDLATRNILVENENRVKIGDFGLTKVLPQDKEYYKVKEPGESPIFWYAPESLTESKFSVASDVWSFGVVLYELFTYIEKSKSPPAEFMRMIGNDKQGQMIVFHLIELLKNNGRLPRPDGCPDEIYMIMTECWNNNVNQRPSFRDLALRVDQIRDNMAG

Structure (SMILES)	IC50 [1] [µM]	IC50 [2] [µM]	Ratio of Jak2/Btk IC50 values [2]	IC50 [3] [µM]
Cc1c(-c2c(Cl)cc(C(N)=O)c3[nH]c4cc(C(C)(C)O)ccc4c23)cccc1-n1c(=O)[nH]c2c(F)cc(F)cc2c1=O (single isomer, unassigned) [Example 48]	0.00033	1.1	3300	0.025
Cc1c(-c2c(F)cc(C(N)=O)c3[nH]c4cc(C(C)(C)O)ccc4c23)cccc1-n1c(=O)[nH]c2c(F)cc(F)cc2c1=O (single isomer, unassigned) [Example 50]	0.00032	1.2	3800	–
Cc1cc(C(N)=O)c2[nH]c3cc(C(C)(C)O)ccc3c2c1-c1cccc(-n2c(=O)[nH]c3c(F)cccc3c2=O)c1C (single isomer, unassigned) [Example 66]	0.00034	–	–	0.089
Cc1c(-c2c(F)cc(C(N)=O)c3[nH]c4c(c23)CC[C@H](C(C)(C)O)C4)cccc1-n1c(=O)cc2c(F)cccn2c1=O (single isomer, unassigned) [Example 68]	–	–	630	0.075
Cc1c(-c2c(Cl)cc(C(N)=O)c3[nH]c4c(c23)CC[C@H](C(C)(C)O)C4)cccc1-n1c(=O)[nH]c2c(F)cc(F)cc2c1=O (single isomer, unassigned) [Example 57]	–	–	1100	0.054
Cc1c(-c2c(F)cc(C(N)=O)c3[nH]c4cc(C(C)(C)O)ccc4c23)cccc1-n1c(=O)[nH]c2cc(F)ccc2c1=O (single isomer, unassigned) [Example 51]	0.0003	> 2	>6700	0.19
Cc1c(-c2c(F)cc(C(N)=O)c3[nH]c4cc(C(C)(C)O)ccc4c23)cccc1-n1c(=O)[nH]c2c(F)cc(F)cc2c1=O [Example 49]	0.00077	> 2	>2600	0.017

Further lines, results first:

IC50 [1] [µM]	IC50 [2] [µM]	Ratio of Jak2/Btk IC50 values [2]	IC50 [3] [µM]	Structure (SMILES)
0.00049	0.77	1600	0.2	Cc1c(-c2c(C#N)cc(C(N)=O)c3[nH]c4cc(C(C)(C)O)ccc4c23)cccc1-n1c(=O)cc2c(Cl)cccn2c1=O (single isomer, unassigned) [Example 72]
0.00041	0.8	–	–	Cc1cc(C(N)=O)c2[nH]c3cc(C(C)(C)O)ccc3c2c1-c1cccc(-n2c(=O)cc3c(Cl)cccn3c2=O)c1C [Example 71]
0.00035	1.2	3400	–	Cc1c(-c2c(F)cc(C(N)=O)c3[nH]c4cc(C(C)(C)O)ccc4c23)cccc1-n1c(=O)[nH]c2c(Cl)cccc2c1=O (single isomer, unassigned) [Example 54]
–	4.3	–	0.18	Cc1c(-c2c(F)cc(C(N)=O)c3[nH]c4cc(C(C)(C)O)ccc4c23)cccc1-n1c(=O)c2cccc(F)c2n(C)c1=O (single isomer, unassigned) [Example 74]
–	–	930	0.066	Cc1c(-c2c(F)cc(C(N)=O)c3[nH]c4cc(CCO)ccc4c23)cccc1-n1c(=O)cc2c(F)cccn2c1=O [Example 70]
0.0011	2.2	2000	–	Cc1c(-c2c(F)cc(C(N)=O)c3[nH]c4cc(C(C)(C)O)ccc4c23)cccc1-n1c(=O)[nH]c2c(Cl)cccc2c1=O (single isomer, unassigned) [Example 53]

Reference: patent publication US10106559B2, “Substituted tetrahydrocarbazole and carbazole carboxamide compounds” (BRISTOL-MYERS SQUIBB COMPANY, priority 2013, dated 2018)
